Columns and labels:
[1] = target: T1, MKK4 (Homo sapiens, UniProt P45985); test: MKK4 radiometric kinase assay; type: biochemical; conditions: MMI-0100 100 μM; remaining kinase activity
T1 construct: purchased Millipore (KinaseProfiler service)
T1 sequence (P45985 1-399): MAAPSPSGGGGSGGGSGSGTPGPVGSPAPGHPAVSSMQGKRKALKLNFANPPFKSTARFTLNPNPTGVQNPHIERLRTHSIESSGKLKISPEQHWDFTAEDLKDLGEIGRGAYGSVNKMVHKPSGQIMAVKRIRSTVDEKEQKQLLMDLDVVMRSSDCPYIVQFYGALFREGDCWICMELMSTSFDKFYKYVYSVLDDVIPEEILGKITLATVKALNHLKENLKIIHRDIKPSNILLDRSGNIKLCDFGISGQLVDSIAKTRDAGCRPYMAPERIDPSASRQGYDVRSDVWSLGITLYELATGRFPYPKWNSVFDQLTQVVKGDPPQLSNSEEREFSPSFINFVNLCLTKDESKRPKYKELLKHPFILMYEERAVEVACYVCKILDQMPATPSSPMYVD
Text: (§1) A commercial radiometric assay service was used to test the specificity and potency of MMI-0100 ([…]; SEQ ID NO: 1) by measuring its half maximal inhibitory concentrations (IC50). This quantitative assay measures how much MK2 inhibitor (MMI-0100; […] (SEQ ID NO: 1)) is needed to inhibit 50% of a given biological process or component of a process (i.e., an enzyme, cell, or cell receptor). Specifically, in these assays, a positively charged substrate is phosphorylated with a radiolabeled phosphate group from an ATP if the kinase is not inhibited by an inhibitor peptide. The positively charged substrate then is attracted to a negatively charged filter membrane, quantified with a scintillation counter, and compared to a 100% activity control. ATP concentrations within 15 μM of the apparent Km for ATP were chosen since an ATP concentration near the Km may allow for the kinases to have the same relative amount of phosphorylation activity. The individual conditions for each radiometric assay are as follows.
The reaction was initiated by the addition of the MgATP. After incubation for 40 minutes at room temperature, 5 μl of the incubation mix was used to initiate the JNK radiometric assay described above.
(§2) IC50 values for inhibitor peptides were determined using Millipore's IC50 Profiler Express service. The IC50 value was estimated from a 10-point curve of one-half log dilutions. […]

[2] = system: human saphenous vein (HSV); test: Human saphenous vein organ culture model of intimal hyperplasia
Protocol: Dc-identified, discarded segments of human saphenous vein (HSV) were collected from consented patients undergoing coronary artery or peripheral vascular bypass surgeries. HSV segments were stored in a saline solution until the end of the surgical procedure, at which time they were placed in cold transplant harvest buffer (100 mM potassium lactobionate, 25 mM KH2PO4, 5 mM MgSO4, 30 mM Raffinose, 5 mM Adenosine, 3 mM Glutathione, 1 mM Allopurinol, 50 g/L Hydroxyethyl starch, pH 7.4). The vessels were used within 24 hours of harvest. Using sterile technique, HSV segments were transferred to a 60-mm Petri dish under a sterile hood. The edges (0.5 mm) of each segment were removed with a blade and excess adventitial tissue and fat removed with minimal manipulation. […]
After viability was determined in the muscle bath, additional rings were cut and placed in 8-well chamber slides and maintained in RPMI 1640 medium supplemented with 30% FBS, 1% L-glutamine and 1% penicillin/streptomycin for 14 days at 37° C. in an atmosphere of 5% CO2 in air. […]
After 14 days of organ culture, vein segments were fixed in 0.5 mL of 10% formalin at 37° C. for 30 minutes and embedded in paraffin for sectioning. […] Intimal and medial thickening was measured for each section at 5× magnification with the microscope's computerized image analysis system. […]

[3] = target: T2, MKK3 (Homo sapiens, UniProt P46734); test: MKK3 kinase activity (data not shown); type: biochemical; conditions: concentration that inhibits >95% of MK2
T2 sequence (P46734 1-347): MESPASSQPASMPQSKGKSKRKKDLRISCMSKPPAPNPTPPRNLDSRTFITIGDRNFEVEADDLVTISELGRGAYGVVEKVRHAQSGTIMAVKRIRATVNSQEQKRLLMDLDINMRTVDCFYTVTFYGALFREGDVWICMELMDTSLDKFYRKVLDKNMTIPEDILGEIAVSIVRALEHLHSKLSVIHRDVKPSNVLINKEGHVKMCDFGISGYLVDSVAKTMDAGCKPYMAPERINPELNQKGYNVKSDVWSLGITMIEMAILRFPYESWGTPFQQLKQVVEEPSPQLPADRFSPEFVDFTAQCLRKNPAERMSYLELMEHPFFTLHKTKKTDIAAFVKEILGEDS
Text: as §1, §2

## YARAAARQARAKALARQLGVAA [MMI-0100]
[1]
  Percent Activity, MKK4: 90%
[2]; 10 μM MMI-0100, 14 days culture, 30% FBS
  mean intimal thickness: 14 μm
[2]; 100 μM MMI-0100, 14 days, 30% serum
  intima:media (I:M) ratio: greater reduction
[3]
  reduction in MKK3 activity: no reduction

Source: patent US20130115256A1, “METHODS FOR TREATING OR PREVENTING VASCULAR GRAFT FAILURE” (priority 2010, published 2013)
